“And” between values parts separate entries of the source, which are not always exact repeats. Identical values can stand only once. “Also recorded” adds a separate entry of the source.
Key:
[1] = system: lateral perforant path EPSPs in hippocampal slices; experiment: Lateral perforant path EPSPs in hippocampal slices; format: cell-based, Sprague-Dawley rats
Experimental: Hippocamlpal slice preparation: Hippocampal slices were prepared from male Sprague-Dawley rats, approximately 4-6 weeks of age. Rats were anesthetized with halothane and then sacrificed via decapitation. The brain was quickly removed and placed in icy, oxygenated artificial cerebrospinal fluid (ACSF) of the following composition for dissection (in mM): 124 NaCl, 3 KCl 1.25 KH2PO4, 5 MgSO4, 3.4 CaCl2, 10 D-glucose, 26 NaHCO3. A tissue block containing the hippocampus and surrounding tissue was prepared and glued to the stage of a vibrating tissue slicer (Leica VT1000; Bannockburn, Ill.). Slices were cut roughly perpendicular to the longitudinal axis of the hippocampus at a thickness of 350 μm. Slices were then immediately transferred to an interface recording chamber containing ACSF with the same constituents as described above except that the concentration of MgSO4 was lowered to 2.5 mM. Recording commenced after a recovery period that was ≧1 hour.
In vitro recording: Slices in the interface chamber were maintained at 32±1° C. and continuously perfused with oxygenated recording ACSF at a rate of 60 ml/hr. Additionally, warmed and humidified 95% O2/5% CO2 was blown into the chamber from above. The lateral perforant path was stimulated with twisted nichrome wire (65 μm) in the outer molecular layer of the dentate gyrus. A chloride-coated silver wire was placed in a single glass pipette filled with 2 M NaCl (˜5 MΩ resistance) for recording of field potentials. The recording electrode was also placed in the outer molecular layer of the dentate gyrus to sample the perforant path synapses. Stimulation intensity was adjusted to elicit responses that were typically 1-2 mV in amplitude and ≦50% of the maximal monophasic response. Evoked responses were recorded at 10 kHz using a differential AC amplifier (A-M Systems Model 1700; Carlsborg, Wash.). Baseline responses were monitored every 20 seconds for a minimum of 30 minutes, depending on the length of time necessary to achieve stability.
Drug application: AChE inhibitors enhance transmission at cholinergic synapses by blocking the enzyme that degrades the released transmitter acetylcholine. This causes acetylcholine to remain at relatively high concentrations for a longer period within the synapse and thereby exert a greater than normal effect on acetylcholine receptors. This greater than normal action on acetylcholine receptors can be partially mimicked by applying a compound that directly stimulates the receptors to a degree that is greater than that produced by normally released acetylcholine. […] The effect of each of these treatments on amplitude size and slope of the descending phase of the response waveform was continuously recorded online throughout the entirety of the experiment.

[2] = system: perforant path evoked responses in the dentate gyrus; experiment: Perforant path evoked responses in the dentate gyrus of awake rats; format: in vivo, Long-Evans rats
Experimental: (§1) Chronic recording preparation: Adult male Long-Evans rats with recording and stimulating electrodes chronically implanted into different areas of the brain known to subserve memory were used. The electrodes were stereotaxically inserted under pentobarbital anesthesia (65 mg/kg), using procedures essentially as described in earlier work (Stäubli and Xu, Journal of Neuroscience 15: 2445-2452, 1995; Stäubli and Scafidi, Journal of Neuroscience 17: 4820-4828, 1997). Briefly, monopolar stimulating electrodes (125 μm) were placed into the perforant path projections to hippocampal dentate gyrus and into the lateral olfactory tract projections to olfactory cortex. Following these steps, the leads of the electrodes were connected to a headstage that is permanently affixed to the rat's skull.
(§2) The animals were allowed approximately 10 days for recovery before being acclimated to a chronic recording cage (30×30×58 cm) and the attachment of a recording lead to their headstage. Biphasic stimulation pulses were provided by a digital stimulator that allows precise control of current intensity and pulse duration. […] The evoked responses were monitored on a storage oscilloscope and digitized at 10 kHz. The peak amplitude, half-width and area of each response were measured on-line and stored on disk for off-line analysis. […]

[3] = system: monosynaptic responses (field EPSPs) known to be mediated by AMPA receptors; experiment: Chronic recording of evoked field EPSPs in freely moving rats (brain area not specified); format: in vivo, Long-Evans rats; settings: CX717 10 mg/kg ip alone
Experimental: as §1, §2

[4] = system: lateral olfactory tract (LOT) evoked responses; experiment: Lateral olfactory tract (LOT) evoked responses in awake rats; format: in vivo, Long-Evans rats
Experimental: as §1
The animals were allowed approximately 10 days for recovery before being acclimated to a chronic recording cage (30×30×58 cm) and the attachment of a recording lead to their headstage. Biphasic stimulation pulses were provided by a digital stimulator that allows precise control of current intensity and pulse duration. Current intensity (10-80 μA) and pulse width (100-150 μsec) were adjusted to produce an evoked field excitatory postsynaptic potential (evoked fEPSP) that is 50-60% of the maximum amplitude of the population spike-free response which typically ranges between 3 and 7 mV. Recording signals were pre-amplified 10× via a FET operational amplifier built into the recording lead and fed into a second stage amplifier set to a gain of 10, with a band-pass of 1 Hz to 5 kHz. The evoked responses were monitored on a storage oscilloscope and digitized at 10 kHz. The peak amplitude, half-width and area of each response were measured on-line and stored on disk for off-line analysis. Baseline evoked EPSPs were tested at 20 sec intervals for a minimum of 30 to 45 min, or until stable (<10% variability in amplitude). The animal was free to move around the cage throughout the experiment, but was not allowed to fall asleep.
Drug Testing: Once baseline stability was established over at least 30 min, the animal was given an intraperitoneal injection of 1) Ampakine compound alone (e.g., CX717 at 10 mg/kg), or 2) acetylcholinesterase (AChE) inhibitor alone (e.g., physostigmine at 0.1 mg/kg, tacrin at 1 mg/kg, galantamine at 1 mg/kg or donezepil at 1.5 mg/kg) or 3) Ampakine compound plus AChE inhibitor combined, both administered at the same time and at the same dose as when given alone. Each rat received each of these three treatments, but only one treatment was given per day, with several days separating successive treatments. The effect of each of these treatments on amplitude size, halfwidth and area of the field EPSP was continuously recorded for several hours after injection.

[5] = CX717 10 mg/kg co-administered ip with physostigmine 0.1 mg/kg

Structure (SMILES) | EPSP amplitude ([1]; CCh 0.5 μM alone, 20-30 minutes after the start of infusion) | effect on lateral perforant path EPSPs (amplitude or slope) ([1]; CCh 0.5 μM by itself) | response amplitude ([1]; CX717 40 μM alone, 30 min infusion, last 10 minutes of drug infusion) | increase in response size relative to CX717 alone ([1]; CX717 40 μM in the presence of 0.5 μM CCh) | perforant path effect relative to CX717 alone ([2]; CX717 10 mg/kg co-injected ip with physostigmine 0.1 mg/kg) | increase in perforant path evoked responses on co-administration ([2]; CX717 with galantamine 1 mg/kg, data not shown) | increase in amplitude of field EPSP [3] | LOT effect relative to CX717 alone [4, 5] | increase in LOT response amplitude above baseline [4, 5] | LOT effect relative to CX717 alone ([4]; CX717 10 mg/kg co-injected ip with Aricept 1.5 mg/kg) | LOT effect relative to CX717 alone ([4]; CX717 10 mg/kg co-injected ip with tacrine 1 mg/kg) | increase in LOT response amplitude ([4]; CX717 10 mg/kg ip alone, 10 mg/kg)
C[N+](C)(C)CCOC(N)=O [CCh, carbachol] | 99.8±2.9 % of baseline | no discernible effects; also recorded: did not detectably affect synaptic transmission; also recorded: did not affect the amplitude or slope of evoked responses | – | – | – | – | – | – | – | – | – | –
O=C(c1ccc2nonc2c1)N1CCOCC1 [CX717] | – | – | 103.5±1.0 % of baseline | several fold greater; also recorded: significantly greater than those observed in the absence of CCh | significantly higher than the effects of CX717 alone | Effects of this kind were also obtained | 5+1% | several times greater than the effects it produced on its own; also recorded: approximately three-fold greater | 20-30% | several times greater than the effects it produced on its own; also recorded: approximately two-fold greater | several times greater than the effects it produced on its own; also recorded: more than two times greater | ~5% and < 10%
